Converted amounts (≈) assume the structure as drawn. A value given as a limit tells only on which side of the number the result lay.

For orientation: MIC means the lowest concentration that inhibits growth of the organism.

Data set [1] deals with Malassezia furfur (CBS 7982). The data set is described as follows: In vitro antifungal potency (MIC), growth read by absorbance at 600 nm. It is filed as cell-based. To be noted: for MIC: CBS7982, read-out: MIC (ppm) against Malassezia furfur; for MIC / MIC (ppm) against Malassezia furfur: mDixon medium, 31° C., approximately 72 hours. On the procedure:
(§1) Malassezia furfur (CBS 7982), Malassezia sympodialis (ATCC 42132), and Malassezia pachydermatis (CBS 1879) is grown for approximately 24 hours in a 250 ml vent cap polycarbonate Erlenmeyer flask containing approximately 100 ml of mDixon medium and 5 ml of a fully grown Malassezia culture is prepared using the same conditions as described. The cells are diluted by mixing 2.5 ml of the 24 hour-old culture per 50 ml of mDixon medium. A Versette robot (ThermoFisher Scientific) is used to transfer 292.5 μl of the dilute cells into each well of a Beckman 267007 polypropylene round bottom deep well plate.
(§2) All compounds are sourced from Sigma Aldrich (St. Louis, Mo.) and prepared as 10 mg/ml in DMSO. A semipermeable aeraseal membrane is applied to the plate which is then covered with water-soaked cotton batting. The samples are shaken at 31° C. on a Heidolph Titramax 100 shaker at 1500 rpm for approximately 72 hours. The plates are shaken at 1250 rpm on an Eppendorf MixMate shaker to disperse the cells before 200 μl of cells is transferred to a Corning 3596 polystyrene plate. The samples are shaken again at 950 rpm on a MixMate shaker before the absorbance at 600 nm is read using a Molecular Devices SpectraMax plate reader.

In data set [2] the test system is Malassezia sympodialis (ATCC 42132). The description is as above. It is filed as cell-based. To be noted: mDixon medium, 31° C., approximately 72 hours; for MIC: Malassezia sympodialis, ATCC42132, read-out: MIC (ppm) against Malassezia sympodialis. On the procedure:
as §1, §2

For data set [3], the system named is Malassezia pachydermatis (CBS 1879). The description is as above. To be noted: mDixon medium, 31° C., approximately 72 hours; for MIC: Malassezia pachydermatis, CBS1879, read-out: MIC (ppm) against Malassezia pachydermatis. It is filed as cell-based. How it is done: as §1, §2
The test system of data set [4] is Candida albicans (ATCC 10231). The description is as above. It is filed as cell-based. To be noted: Sabouraud Broth, 31° C., evaluated at concentrations up to 250 ppm; for MIC: Candida albicans, ATCC10231, read-out: MIC (ppm) against Candida albicans. How it is done:
Candida albicans (ATCC 10231) is grown overnight in Sabouraud Broth (SDB). 190 μl of SDB is added per well of a Corning 3596 polystyrene plate followed by 5 μl of test material as two-fold dilutions in DMSO and 5 μl C. albicans. The cells are incubated at 31° C., without shaking, and wrapped in wet cotton batting. The plates are shaken for 30 seconds at 950 rpm on a MixMate shaker. The absorbance at 600 nm is read on a Spectramax plate reader.
as §2

In data set [5] the test system is Aspergillus brasiliensis (ATCC 16404). Nature of the data set: In vitro antifungal potency (MIC), growth graded visually. The class given is cell-based. To be noted: spores in SDB, 25° C., approximately 96 h; for MIC: Aspergillus brasiliensis, ATCC16404, read-out: MIC (ppm) against Aspergillus brasiliensis. On the procedure:
Aspergillus brasiliensis (ATCC 16404): Aspergillus spores are prepared by inoculating a Sabouraud agar plate and incubating at 25° C. for 6-10 days, after which, 10 mL of Saline+Tween-80 is added to dislodge the spores. The suspension is then filtered through 2 layers of sterile gauze. The spores are diluted two-fold in SDB. 190 μl of SDB is added to a Corning 3596 polystyrene plate followed by 5 μl of test compound per well and 5 μl of the diluted spores. The plates are incubated at 25° C. for approximately 96 h at high humidity. Growth is graded visually as either growth or no growth.
as §2

For data set [6] the following is noted: cited from earlier work.
For the next data set, the system named is Malassezia yeasts. The data set is described as follows: In vitro antifungal potency (MIC), statements across the Malassezia species tested. It is filed as cell-based. How it is done: as §1, §2

For the compound `CO/N=C(/C(=O)OC)c1ccccc1COc1ccccc1C` [Kresoxim-methyl, kresoxim methyl], the MIC in data set [1] (Malassezia furfur) is 15.6 µg/mL (≈ 49.9 µM); in data set [2], 3.91 µg/mL (≈ 12.5 µM); in data set [3], 31.2 µg/mL (≈ 99.7 µM); in data set [4], above 250 µg/mL; in data set [5], 0.98 µg/mL (≈ 3.13 µM).

Take `CO/N=C(/C1=NOCCO1)c1ccccc1Oc1ncnc(Oc2ccccc2Cl)c1F` [Fluoxastrobin, fluoxastrobin]: the MIC in data set [1] (Malassezia furfur) is 3.91 µg/mL (≈ 8.52 µM); in data set [2] it was 1.95 µg/mL (≈ 4.25 µM); in data set [3], 7.81 µg/mL (≈ 17 µM); in data set [4], above 250 µg/mL; in data set [5] it was 0.49 µg/mL (≈ 1.07 µM).

For `COC(=O)N(OC)c1ccccc1COc1ccn(-c2ccc(Cl)cc2)n1` [Pyraclostrobin, pyraclostrobin], the MIC in data set [1] (Malassezia furfur) was 1.95 µg/mL (≈ 5.03 µM); in data set [2], 0.49 µg/mL (≈ 1.26 µM); in data set [3] it was 3.91 µg/mL (≈ 10.1 µM); in data set [4], above 250 µg/mL; in data set [5], 0.02 µg/mL (≈ 0.0516 µM).

Turning to `CNC(=O)/C(=N/OC)c1ccccc1CO/N=C(C)/C(=N/OC)C(/C)=N/OC` [Orysastrobin, orysastrobin], in data set [1], the “MIC (ppm) against Malassezia furfur” value is listed as 31.25 ppm. Also, the “times less potent than azoxystrobin (MIC against Malassezia furfur)” value in data set [1] (ratio of MICs, Malassezia furfur) was found to be 64 times. Also, in data set [2], the “MIC (ppm) against Malassezia sympodialis” value stood at 7.81 ppm. The “MIC (ppm) against Malassezia pachydermatis” value in data set [3] amounted to 125 ppm. The “MIC (ppm) against Candida albicans” value in data set [4] is reported as above 250 ppm. For the same compound, the “MIC (ppm) against Aspergillus brasiliensis” value in data set [5] is 31.25 ppm.

As for `CO/C=C(/C(=O)OC)c1ccccc1Oc1cc(Oc2ccccc2C#N)ncn1` [Azoxystrobin], the solubility in water result in data set [6] is recorded as “low”. The “MIC (ppm) against Malassezia furfur” value in data set [1] was determined as 0.49 ppm. Also, the “MIC (ppm) against Malassezia sympodialis” value in data set [2] is given as 0.12 ppm. Further, in data set [3], the “MIC (ppm) against Malassezia pachydermatis” value is on record as 0.98 ppm. Further, in data set [4], the “MIC (ppm) against Candida albicans” value is above 250 ppm. Further, the “MIC (ppm) against Aspergillus brasiliensis” value in data set [5] was 0.24 ppm. Besides, the “MIC against Malassezia yeasts (all species tested)” value in the data set with Malassezia yeasts (M. furfur, M. sympodialis, M. pachydermatis) was “less than 1.0 ppm”. Further, the “times more potent than pyraclostrobin (MIC against Malassezia, in all cases)” value in the data set on Malassezia yeasts (ratio of MICs, all three Malassezia species) amounted to 4 times.

For `CNC(=O)/C(=N/OC)c1ccccc1COc1cc(C)ccc1C` [Dimoxystrobin, dimoxystrobin], the “MIC (ppm) against Malassezia furfur” value in data set [1] was found to be 7.81 ppm. Further, the “MIC (ppm) against Malassezia sympodialis” value in data set [2] was determined as 1.95 ppm. The “MIC (ppm) against Malassezia pachydermatis” value in data set [3] came to 31.25 ppm. For the same compound, the “MIC (ppm) against Candida albicans” value in data set [4] is listed as above 250 ppm. Further, the “MIC (ppm) against Aspergillus brasiliensis” value in data set [5] was 0.24 ppm.

Consider `CON=C(C(=O)OC)c1ccccc1CON=C(C)c1cccc(C(F)(F)F)c1` [Trifloxystrobin, trifloxystrobin], for which the MIC in data set [1] (Malassezia furfur) is 15.6 µg/mL (≈ 38.3 µM); in data set [2] it was 1.95 µg/mL (≈ 4.78 µM); in data set [3] it was 31.2 µg/mL (≈ 76.5 µM); in data set [4], above 250 µg/mL; in data set [5], 31.2 µg/mL (≈ 76.5 µM).

The record behind these values is patent US20220192956A1, “SUPERIOR EFFICACY OF AZOXYSTROBIN AND OTHER STROBILURINS” (The Procter & Gamble Company, priority 2020, published 2022).
